Results: the supplement of paper PMC13380429

Key:
Conditions in all cases: 72 h
U2OS [1] = assay: cell viability relative to DMSO; higher = less toxic
Vero E6 [2] = assay: as above
Calu-3 [3] = assay: as above
Caco-2 [4] = assay: as above
HepG2 [5] = assay: as above
U2OS [6] = assay: drug sensitivity score (DSS) for viability; higher = more toxic; extreme values may be limits of the assay
Vero E6 [7] = assay: as above
Calu-3 [8] = assay: as above
Caco-2 [9] = assay: as above
HepG2 [10] = assay: as above
U2OS [11] = assay: relative viability EC50 (midpoint between 100% and the lowest measured viability); higher = less toxic
Vero E6 [12] = assay: as above
Calu-3 [13] = assay: as above
Caco-2 [14] = assay: as above
HepG2 [15] = assay: as above

Row | Structure (SMILES) | cell viability (U2OS [1]; 1 nM) [%] | cell viability (U2OS [1]; 10 nM) [%] | cell viability (U2OS [1]; 100 nM) [%] | cell viability (U2OS [1]; 1000 nM) [%] | cell viability (U2OS [1]; 10000 nM) [%] | cell viability (Vero E6 [2]; 1 nM) [%] | cell viability (Vero E6 [2]; 10 nM) [%] | cell viability (Vero E6 [2]; 100 nM) [%] | cell viability (Vero E6 [2]; 1000 nM) [%] | cell viability (Vero E6 [2]; 10000 nM) [%] | cell viability (Calu-3 [3]; 1 nM) [%] | cell viability (Calu-3 [3]; 10 nM) [%] | cell viability (Calu-3 [3]; 100 nM) [%] | cell viability (Calu-3 [3]; 1000 nM) [%] | cell viability (Calu-3 [3]; 10000 nM) [%] | cell viability (Caco-2 [4]; 1 nM) [%] | cell viability (Caco-2 [4]; 10 nM) [%] | cell viability (Caco-2 [4]; 100 nM) [%] | cell viability (Caco-2 [4]; 1000 nM) [%] | cell viability (Caco-2 [4]; 10000 nM) [%] | cell viability (HepG2 [5]; 1 nM) [%] | cell viability (HepG2 [5]; 10 nM) [%] | cell viability (HepG2 [5]; 100 nM) [%] | cell viability (HepG2 [5]; 1000 nM) [%] | cell viability (HepG2 [5]; 10000 nM) [%] | drug sensitivity score (U2OS [6]) | drug sensitivity score (Vero E6 [7]) | drug sensitivity score (Calu-3 [8]) | drug sensitivity score (Caco-2 [9]) | drug sensitivity score (HepG2 [10]) | relative viability EC50 (U2OS [11]) [µM] | relative viability EC50 (Vero E6 [12]) [µM] | relative viability EC50 (Calu-3 [13]) [µM] | relative viability EC50 (Caco-2 [14]) [µM] | relative viability EC50 (HepG2 [15]) [µM]
1 | CNC(=O)c1ccc2cc([C@@]3(O)CCn4cncc43)ccc2c1 [orteronel] | 99.8 | 99 | 101 | 99 | 98.9 | 99.7 | 104 | 99.8 | 100 | 94.6 | 102 | 108 | 99.4 | 105 | 108 | 88.1 | 91.3 | 94.2 | 99.8 | 96.6 | 103 | 104 | 90.1 | 104 | 90 | 0 | 0 | 0 | 0 | 0 | > 10 | > 10 | > 10 | > 10 | > 10
2 | NCCc1cc(O)c(O)cc1O [oxidopamine] | 96 | 102 | 94.8 | 104 | 103 | 97.3 | 99.6 | 96.6 | 91.5 | 105 | 91.1 | 101 | 108 | 108 | 109 | 86.7 | 93.3 | 90.7 | 95.4 | 100 | 97.4 | 104 | 114 | 107 | 98.7 | 0 | 0 | 0 | 0 | 0 | > 10 | > 10 | > 10 | > 10 | > 10
3 | COc1cc2c(cc1OC)-c1cc3ccc(OC)c(OC)c3c[n+]1CC2 [palmatine-chloride] | 101 | 101 | 98.5 | 102 | 92.6 | 100 | 99.3 | 99.6 | 102 | 101 | 94.1 | 105 | 100 | 90.1 | 90 | 103 | 99.1 | 92.8 | 102 | 90.9 | 110 | 101 | 107 | 105 | 77.1 | 0 | 0 | 0 | 0 | 0.6 | > 10 | > 10 | > 10 | > 10 | > 10
4 | COc1ccc(Cc2nccc3cc(OC)c(OC)cc23)cc1OC [papaverine] | 101 | 92.5 | 99 | 96.5 | 89.7 | 103 | 105 | 105 | 108 | 90.1 | 91.3 | 98.8 | 98.8 | 87.6 | 81.2 | 95 | 91.9 | 95.8 | 86.1 | 77.8 | 111 | 109 | 92.9 | 100 | 32.7 | 0 | 0 | 1.5 | 1.7 | 3.7 | > 10 | > 10 | > 10 | > 10 | 3.17
5 | NCCCC[C@@H]1NC(=O)[C@@H](Cc2c[nH]c3ccccc23)NC(=O)[C@H](c2ccccc2)NC(=O)[C@@H]2C[C@@H](OC(=O)NCCN)CN2C(=O)[C@H](Cc2ccccc2)NC(=O)[C@H](Cc2ccc(OCc3ccccc3)cc2)NC1=O [pasireotide] | 96.7 | 104 | 95.8 | 102 | 108 | 98.9 | 89 | 96 | 83.6 | 96.8 | 102 | 101 | 87.8 | 106 | 108 | 108 | 107 | 88.4 | 110 | 146 | 91.9 | 105 | 114 | 102 | 93.3 | 0 | 0 | 0 | 0 | 0 | > 10 | > 10 | > 10 | > 10 | > 10
6 | CN1CCC2=C(C1)C(c1ccccc1)c1ccccc12 (stereo not given) [phenindamine] | 94 | 100 | 93.8 | 98 | 92.6 | 98.9 | 96.3 | 97.4 | 99.7 | 97.2 | 96.7 | 107 | 98.2 | 106 | 99.1 | 97.4 | 95.1 | 99.1 | 102 | 89 | 97 | 88.6 | 98.2 | 94.3 | 88.9 | 0 | 0 | 0 | 0 | 0 | > 10 | > 10 | > 10 | > 10 | > 10
